Values after ≈ are worked out from the molar mass of the structure shown.
Assays:
Ps. aeruginosa SS 10 = assay type: cell-based; settings: Brain Heart Infusion, estolate and RV11-RV15 previously hydrolized, unit assumed
E. aerogenes SS 011 = assay type: cell-based; settings: Brain Heart Infusion, estolate and RV11-RV15 previously hydrolized, unit assumed
B. cereus ATCC 11778 = assay type: cell-based; settings: Brain Heart Infusion, estolate and RV11-RV15 previously hydrolized, unit assumed
D. pneumoniae SS 23 [1] = assay type: cell-based; settings: Brain Heart Infusion, estolate and RV11-RV15 previously hydrolized, unit assumed
[2] = test system: Strept. haemolyticus SS 18; assay type: cell-based; settings: Brain Heart Infusion, estolate and RV11-RV15 previously hydrolized, unit assumed
Br. abortus SS 7 = assay type: cell-based; settings: Brain Heart Infusion, estolate and RV11-RV15 previously hydrolized, unit assumed
B. subtilis SS 127 = assay type: cell-based; settings: Brain Heart Infusion, estolate and RV11-RV15 previously hydrolized, unit assumed
Staph. aureus SS 07 = experiment: Experimental infection induced by Staph. aureus SS 07; assay type: in vivo, Swiss white mice; settings: Staphylococcus aureus, SS07, in Mus musculus, po, 168 h, os; Staph. aureus SS 07; mg/kg of erythromycin; survival after 7 days; read-out: ED50 (reliability limits)
Method: (§1) Swiss white mice of 20 g body weight were used, infected by parenteral administration of lethal amounts of pathogenic […] of Staph. aureus SS 07 and D. pneumoniae SS 23.
(§2) The antibiotics were administered at the time of injecting the infecting germ and 6 and 24 hours later. On the basis of the survival after 7 days, the ED50 values were determined, as reported in the following table II and III, wherein the reliability limits are indicated in brackets.

E. coli SS 05 = assay type: cell-based; settings: Brain Heart Infusion, estolate and RV11-RV15 previously hydrolized, unit assumed
Staph. albus SS 04 = assay type: cell-based; settings: Brain Heart Infusion, estolate and RV11-RV15 previously hydrolized, unit assumed
[3] = in vivo, po, 100 mg/kg, 6 h
Sr. marcescens SS 03 = assay type: cell-based; settings: Brain Heart Infusion, estolate and RV11-RV15 previously hydrolized, unit assumed
Staph. albus SS 03 = assay type: cell-based; settings: Brain Heart Infusion, estolate and RV11-RV15 previously hydrolized, unit assumed
E. coli SS 04 = assay type: cell-based; settings: Brain Heart Infusion, estolate and RV11-RV15 previously hydrolized, unit assumed
Kl. pneumoniae SS 04 = assay type: cell-based; settings: Brain Heart Infusion, estolate and RV11-RV15 previously hydrolized, unit assumed
Description: (§3) In the following table I the MIC/ml values are indicated corresponding to the lowest concentration capable of inducing a complete inhibition of the bacterial development.

H. tubercolosis SS 03 = assay type: cell-based; settings: Brain Heart Infusion, estolate and RV11-RV15 previously hydrolized, unit assumed
Description: as §3

S. lutea ATCC 9341 = assay type: cell-based; settings: Brain Heart Infusion, estolate and RV11-RV15 previously hydrolized, unit assumed
[4] = test system: Strept. haemolyticus SS 17; assay type: cell-based; settings: Brain Heart Infusion, estolate and RV11-RV15 previously hydrolized, unit assumed
Staph. aureus SS 08 = assay type: cell-based; settings: Brain Heart Infusion, estolate and RV11-RV15 previously hydrolized, unit assumed
B. subtilis ATCC 6633 = assay type: cell-based; settings: Brain Heart Infusion, estolate and RV11-RV15 previously hydrolized, unit assumed
[5] = Hematic levels in the healthy volunteer; assay type: in vivo, healthy volunteers; settings: 500 mg of erythromycin, average; for Hematic levels in the healthy volunteer: oral
Description: For the dosing, the microbiological method using a B. subtilis strain was adopted.

Pr. mirabilis SS 09 = assay type: cell-based; settings: Brain Heart Infusion, estolate and RV11-RV15 previously hydrolized, unit assumed
Br. melitensis SS 19 = assay type: cell-based; settings: unit assumed
E. coli SS 06 = assay type: cell-based; settings: Brain Heart Infusion, estolate and RV11-RV15 previously hydrolized, unit assumed
C. albicans SS 04 = assay type: cell-based; settings: Brain Heart Infusion, estolate and RV11-RV15 previously hydrolized, unit assumed
Citrobacter SS 09 = assay type: cell-based; settings: Brain Heart Infusion, estolate and RV11-RV15 previously hydrolized, unit assumed
[6] = Histological examination of bronchi after SO2 inhalation; assay type: in vivo, Sprague Dawley male rats; settings: oral, 500 mg/kg
S. infantis SS 08 = assay type: cell-based; settings: Brain Heart Infusion, estolate and RV11-RV15 previously hydrolized, unit assumed
[7] = Mucolytic activity: obstruction of the bronchial tract after SO2 inhalation; assay type: in vivo, Sprague Dawley male rats; settings: oral, 500 mg/kg; SO2, 15 days
in vivo = settings: rat, po, 100 mg/kg, Hematic levels in the rat
D. pneumoniae SS 23 [8] = experiment: Experimental infection induced by D. pneumoniae SS 23; assay type: in vivo, Swiss white mice; settings: Streptococcus pneumoniae, SS23, in Mus musculus, po, 168 h, os; D. pneumoniae SS 23; mg/kg of erythromycin; survival after 7 days; read-out: ED50 (reliability limits)
Method: as §1, §2

Pr. vulgaris SS 10 = assay type: cell-based; settings: Brain Heart Infusion, estolate and RV11-RV15 previously hydrolized, unit assumed
Cl. tetani SS 17 = assay type: cell-based; settings: Brain Heart Infusion, estolate and RV11-RV15 previously hydrolized, unit assumed
Citrobacter SS 05 = assay type: cell-based; settings: Brain Heart Infusion, estolate and RV11-RV15 previously hydrolized, unit assumed
E. cloacae SS 07 = assay type: cell-based; settings: Brain Heart Infusion, estolate and RV11-RV15 previously hydrolized, unit assumed
E. coli SS 07 = assay type: cell-based; settings: Brain Heart Infusion, estolate and RV11-RV15 previously hydrolized, unit assumed
B. anthranis SS 09 = assay type: cell-based; settings: B. anthranis SS 09 (14 bis); Brain Heart Infusion; estolate and RV11-RV15 previously hydrolized; unit assumed
C. diphtheriae SS 19 = assay type: cell-based; settings: Brain Heart Infusion, estolate and RV11-RV15 previously hydrolized, unit assumed
N. meningitidis SS 04 = assay type: cell-based; settings: Brain Heart Infusion, estolate and RV11-RV15 previously hydrolized, unit assumed
B. anthranis SS 08 = assay type: cell-based; settings: Brain Heart Infusion, estolate and RV11-RV15 previously hydrolized, unit assumed
N. gonorreae SS 27 = assay type: cell-based; settings: Brain Heart Infusion, estolate and RV11-RV15 previously hydrolized, unit assumed
H. pertussis SS 03 = assay type: cell-based; settings: Brain Heart Infusion, estolate and RV11-RV15 previously hydrolized, unit assumed
S. heidelberg SS 18 = assay type: cell-based; settings: Brain Heart Infusion, estolate and RV11-RV15 previously hydrolized, unit assumed
Staph. aureus SS 09 = assay type: cell-based; settings: Brain Heart Infusion, estolate and RV11-RV15 previously hydrolized, unit assumed
Kl. aerogenes SS 71 = assay type: cell-based; settings: Brain Heart Infusion, estolate and RV11-RV15 previously hydrolized, unit assumed
Strept. faecalis SS 19 = assay type: cell-based; settings: Brain Heart Infusion, estolate and RV11-RV15 previously hydrolized, unit assumed
H. influentiae SS 02 = assay type: cell-based; settings: Brain Heart Infusion, estolate and RV11-RV15 previously hydrolized, unit assumed

SMILES: CCC(=O)O[C@H]1[C@H](O[C@@H]2[C@@H](C)[C@H](O[C@H]3C[C@@](C)(OC)[C@@H](O)[C@H](C)O3)[C@@H](C)C(=O)O[C@H](CC)[C@@](C)(O)[C@H](O)[C@@H](C)C(=O)[C@H](C)C[C@@]2(C)O)O[C@H](C)C[C@@H]1N(C)C [erythromycin estolate, reference compound]
- MIC (Ps. aeruginosa SS 10): 100 µg/mL (≈ 127 µM)
- MIC (E. aerogenes SS 011): 50 µg/mL (≈ 63.3 µM)
- MIC (B. cereus ATCC 11778): 0.8 µg/mL (≈ 1.01 µM)
- MIC (D. pneumoniae SS 23 [1]): 0.05 µg/mL (≈ 0.0633 µM)
- MIC [2]: 3 µg/mL (≈ 3.8 µM)
- MIC (Br. abortus SS 7): 6 µg/mL (≈ 7.59 µM)
- MIC (B. subtilis SS 127): 0.025 µg/mL (≈ 0.0316 µM)
- ED50 (Staph. aureus SS 07): 2.2 mg/kg
- MIC (E. coli SS 05): 100 µg/mL (≈ 127 µM)
- MIC (Staph. albus SS 04): 0.05 µg/mL (≈ 0.0633 µM)
- Hematic levels in the rat [3]: 0.04 µg/mL
- MIC (Sr. marcescens SS 03): > 200 µg/mL
- MIC (Staph. albus SS 03): 0.05 µg/mL (≈ 0.0633 µM)
- MIC (E. coli SS 04): 100 µg/mL (≈ 127 µM)
- MIC (Kl. pneumoniae SS 04): 100 µg/mL (≈ 127 µM)
- MIC (H. tubercolosis SS 03): 50 µg/mL (≈ 63.3 µM)
- MIC (S. lutea ATCC 9341): 0.01 µg/mL (≈ 0.0127 µM)
- MIC [4]: 3 µg/mL (≈ 3.8 µM)
- MIC (Staph. aureus SS 08): 0.025 µg/mL (≈ 0.0316 µM)
- MIC (B. subtilis ATCC 6633): 0.01 µg/mL (≈ 0.0127 µM)
- Hematic levels in the healthy volunteer ([5]; 0.30 hours, 18 min): 0.27 µg/mL
- Hematic levels in the healthy volunteer ([5]; 1 hour, 60 min): 0.58 µg/mL
- concentration at 2 h ([5]; human, blood, po, 500 mg, 2 hours): 2100 ng/mL
- concentration at 3 h ([5]; human, blood, po, 500 mg, 3 hours): 1410 ng/mL
- concentration at 4 h ([5]; human, blood, po, 500 mg, 4 hours): 1310 ng/mL
- MIC (Pr. mirabilis SS 09): > 200 µg/mL
- MIC (Br. melitensis SS 19): 3 µg/mL (≈ 3.8 µM)
- MIC (E. coli SS 06): 50 µg/mL (≈ 63.3 µM)
- MIC (C. albicans SS 04): 200 µg/mL (≈ 253 µM)
- MIC (Citrobacter SS 09): > 200 µg/mL
- bronchial epithelium reaction [6]: the bronchial epithelium reacts through a proliferation of cells, mainly cup-shaped cells
- histological appearance of obstructed bronchial tract ([6]; obstructed): the bronchial obstruction is formed by abundant mucus admixed with fibrin
- MIC (S. infantis SS 08): 100 µg/mL (≈ 127 µM)
- Partial obstruction (% incidence) [7]: 20%
- Total obstruction, compact plug (% incidence) [7]: 46.66%
- Total obstruction, nodular mass (% incidence) [7]: 20%
- Total obstruction, pimply mass (% incidence) [7]: 6.66%
- concentration at 0.3 h (in vivo): 680 ng/mL
- concentration at 1 h (in vivo): 1740 ng/mL
- concentration at 2 h (in vivo): 2490 ng/mL
- concentration at 3 h (in vivo): 1490 ng/mL
- concentration at 4 h (in vivo): 610 ng/mL
- concentration at 5 h (in vivo): 370 ng/mL
- ED50 (D. pneumoniae SS 23 [8]): 128 mg/kg
- MIC (Pr. vulgaris SS 10): > 200 µg/mL
- MIC (Cl. tetani SS 17): 0.2 µg/mL (≈ 0.253 µM)
- MIC (Citrobacter SS 05): > 200 µg/mL
- MIC (E. cloacae SS 07): > 200 µg/mL
- MIC (E. coli SS 07): 50 µg/mL (≈ 63.3 µM)
- MIC (B. anthranis SS 09): 0.4 µg/mL (≈ 0.506 µM)
- MIC (C. diphtheriae SS 19): 0.025 µg/mL (≈ 0.0316 µM)
- MIC (N. meningitidis SS 04): 1.5 µg/mL (≈ 1.9 µM)
- MIC (B. anthranis SS 08): 0.4 µg/mL (≈ 0.506 µM)
- MIC (N. gonorreae SS 27): 0.8 µg/mL (≈ 1.01 µM)
- MIC (H. pertussis SS 03): 0.4 µg/mL (≈ 0.506 µM)
- MIC (S. heidelberg SS 18): 100 µg/mL (≈ 127 µM)
- MIC (Staph. aureus SS 09): 0.05 µg/mL (≈ 0.0633 µM)
- MIC (Kl. aerogenes SS 71): 100 µg/mL (≈ 127 µM)
- MIC (Strept. faecalis SS 19): 0.1 µg/mL (≈ 0.127 µM)
- MIC (H. influentiae SS 02): 1.5 µg/mL (≈ 1.9 µM)
